Data taken from patent US6328728A, “Composition and method for enhancing electrotransport agent delivery” (Alza Corporation, priority 1997, dated 2001).

Tests used:
[1] = Electrophoretic mobility by capillary zone electrophoresis; type: physicochemical; settings: no surfactant
Protocol: Since electrophoretic mobility (ie, the ability of a drug/agent to migrate in an electric field) is an important aspect of electrotransport drug delivery, the electrophoretic mobility of the drug/agent being delivered is predictive of suitability for transdermal electrotransport delivery. Electrophoretic mobility measurements were performed using a capillary zone electrophoresis instrument (model 2100 P/ACE instrument, Beckman Instruments, Inc., Palo Alto, Calif.). At acid pH values DB-WAX, DB-1, DB-17 (J&W Scientific, Folsom, Calif.) capillary columns were used either with 50 or 100 micron internal diameter column and CElect H75 (Supelco, Bellefonte, Pa.) capillary column with a 75 micron internal diameter. At alkaline pH values uncoated silica capillaries of length 57 cm with an internal diameter of 75 microns were used with an applied voltage of 20 kV. If any electroosmotic flow was present, it was detected using a neutral marker such as 0.01% benzyl alcohol (SIGMA, St. Louis, Mo.) or 1/500 mesityl oxide (Applied Biosystems, Foster City, Calif.). The optimum voltage was determined by doing an Ohm's Law test on each buffer and capillary system. The temperature of the capillary columns was set at 32° C. and a two second pressure injection was done. A UV detector was used to monitor peptide and markers at either 214 or 280 nm.
Voltage injection had to be used for the 27 cm length column. The voltage applied varied depending on the capillary length.
The following equation was used to determine electrophoretic mobility μ. [formula]
If the electroosmotic flow is detected, the following equation can be used.
μpeptide =μtotal -μneutral marker
(§1) The measurement procedures described above were conducted on an aqueous solution of the protein insulinotropin, with TWEEN® 20 (MW=1126 g/mol) as the surfactant, with the following modifications. The insulinotropin donor solution concentration was 0.12 mg/mL. One test was run in 10 mM sodium borate at pH 9.0 and another test in 10 mM sodium chloroacetate at pH 3.5.
(§2) Fractional changes (%δ) are defined as the difference between the reading at a given surfactant concentration (Ec) minus the reading at zero surfactant (E0), the quantity divided by the difference between the reading at saturated surfactant concentration (Es) minus the reading at zero surfactant (E0), i. e. %δ=(Ec -E0)/(Es-E0).
The measurement procedures described earlier were conducted in this example on an aqueous solution containing insulinotropin as the agent and dodecyl trimethyl ammonium chloride (DTAC) as the ionic surfactant with the following modifications. […]
The same measurement procedures were conducted using an aqueous solution of salmon calcitonin as the agent and the zwitterionic dodecyl sulfobetaine as the surfactant with the following modifications. The temperature was initially 32° C., the surfactant concentration was varied up to 30 mM, and the calcitonin concentration was 0.06 to 0.08 mM. Tables 7, 8, and 9 below provide the results obtained in terms of polypeptide ellipticity expressed as a function of zwitterionic surfactant concentration at pH 3.5 in 12 mM sodium chloroacetate (Table 7), 5.0 in 4 mM piperazine HCI (Table 8), and 6.5 in 15 mM sodium cacodylate (Table 9), respectively. Table 8, in addition, provides the results obtained on electrophoretic mobility and HIC retention time in a phenyl superose column at pH 5.0.

[2] = Hydrophobicity by hydrophobic interaction chromatography (HIC), phenyl Superose column (retention time, ta/tm); type: physicochemical; settings: for HIC Retention Time (Phenyl Superose Col.): no surfactant
Protocol: The hydrophobicity of an agent (eg, an agent such as a polypeptide or protein in solution, as well as the relative increase or decrease thereof) is determined by passing the agent-containing solution through a chromatography column filled with a particular "hydrophobic interaction" bead material and measuring either (1) the time required for the agent to elute (ie, pass through) the column or (2) the volume of liquid (ie, the same liquid used in the agent-containing sample, but with the agent removed) required to be pumped through the column in order to elute the agent. For the purposes of the present invention, the hydrophobicity of an agent is defined in terms relative to the marker compound, N-acetyl tryptophanamide (sold by Sigma Chemical, St. Louis, Mo.), which has a somewhat moderate hydrophobicity. Hydrophobicity, as that term is used herein, is measured using a 5 mm diameter glass column having a length of 5 cm (ie, column volume of 1.0 mL) and packed with cross-linked agar beads having an average particle size of 13.5 μm. Examples of suitable hydrophobic bead materials include cross-linked agar gel beads (Superose 12) having hydrophobic ligands attached to the agar via chemically stable ether linkages ((Superose 12)--O--CH2 --CHOH--CH2 --O--R) such as alkyl-Superose wherein R is --CH2 --C(CH3)3 and phenyl-Superose wherein R is phenyl, both of which are sold in pre-packaged column form by Pharmacia Biotech, Inc. of Piscataway, N.J. Immediately downstream from the column is placed a flow cell which permits continuous UV absorbance measurements of the solution flowing out of the column. Suitable flow cells and UV absorbance detectors are sold by Perkin-Elmer Corp., Applied Biosystems, Foster City, Calif. Hydrophobicity measurements are conducted at 32° C. with the same buffer that is used in the electrotransport system which is used to deliver the agent (eg, transdermally) to the patient. The buffer strength used in the hydrophobicity measurements is 10 mM ionic strength. The term "certain hydrophobicity" as used herein, means that the time required for the agent to elute from the column, relative to the time required for N-acetyl tryptophanamide to elute, is as follows:
ta /tm >0.7, and preferably ta /tm >3
ta is the time at which the peak UV absorbance value is recorded for the beneficial agent in the flow cell, less the time required to initially fill the column with the agent-containing solution (ie, dead volume retention time); and
tm is the time at which the peak UV absorbance value is recorded for the N-acetyl tryptophanamide marker in the flow cell, less the time required to initially fill the column with the marker-containing solution (ie, dead volume retention time).
The above described measurement of agent hydrophobicity is substantially independent of column size and flow rate through the column.
One method of measuring the hydrophobicity of an agent such as a polypeptide or protein is by hydrophobic interaction chromatography (HIC). The principles and conditions associated with HIC are fully described in Protein Purification: Principles, High Resolution Methods, and Applications, Janson and Ryden, Eds., pp. 207-226 (1989), the pertinent portions of which are incorporated herein by reference. This method requires passing a composition through a hydrophobic interaction column and measuring the volume of solvent required for its complete elution. The hydrophobic sites on the agent are generally attracted to hydrophobic groups, such as aryl groups, affixed to beads placed within the column. A preferred HIC column material is phenyl-superose (Pharmacia, Sweden), a cross-linked polysaccharide which has been covalently modified to have pendant hydrophobic aryl groups. These pendant groups are similar to the hydrophobic or lipophilic species in the skin layers. Thus, this hydrophobic interaction column approximates, and is a good in vitro model for, an animal's skin layer as a barrier to transport of a polypeptide or protein. […]

[3] = pH 6.5
Protocol: A. Preparation of Human Skin Samples
Human cadaver skin was prepared by first removing about 1 mm thick skin samples in the form of strips. The skin strips were placed in polyethylene bags, sealed and placed in a refrigerator at about 4° C. for temporary storage. Prior to use in the electrotransport cell, the skin strips were placed in one-liter beakers containing water at 60° C. for about 90 seconds with gentle stirring. Then, the skin strips were removed and placed onto the absorbent side of a piece of BENCHKOTE™ material with the dermis side down. Using flat tipped tweezers to retain the dermis, the epidermis was removed from each strip with a round-tip spatula. Each epidermis, stratum corneum side up, was transferred to a PYREX™ glass tray filled with water. Each floating epidermis was stretched essentially flat. After removal from the water 2.22 cm (7/8 in) diameter disks of each epidermis were punched out of areas having negligible surface damage. The discs were stored at 4° C. in a sealed container with water droplets to maintain their moisture.
B. Set-up of Electrotransport Cell and Composition […]
The solution concentration of the polypeptide in the donor compartment 44 was, unless otherwise specified, 1 mM. […] The polypeptide flux was determined by periodic sampling of the solution in the receptor compartment 46. […]

[4] = Measurement of circular dichroism (mean residue ellipticity at 222 nm); type: physicochemical; settings: insulinotropin as agent
Source text: In general, the structure of a polypeptide in an aqueous buffered solution is in constant flux between portions thereof being random coil and alpha-helix configurations. For the polypeptides used in the following examples, the predominant structure is a random coil since the alpha-helix configuration is unstable in the absence of bound surfactant. According to the present invention adding surfactant to an aqueous solution of a polypeptide stabilizes the alpha-helix configuration. Circular dichroism is a measurement of the amount of the alpha-helix configured polypeptide present in the solution. Thus, circular dichroism provides an indirect measurement of the degree of binding of the surfactant to the polypeptide. (See, for example, Epand R. M., Epand R. F., Orlowski R. C., Schuleter R. J., Boni L. T. and Hui S. W., Biochemistry 22, 5074-5084 (1983); Hui, S. W., Epand R. M., Dell K. R., Epand R. F. and Orlowski R. C., Biochimica Biophysica Acta 772, 264-272 (1984); Epand R. M., Epand R. F., and Orlowski R. C., International Journal Peptide Protein Research 25 105-111; Epand R. M., Epand R. F., Orlowski R. C., Seyler J. K. and Colescott R. L., Biochemistry 25, 1964-1968; Epand R. M., Seyler J. K. and Orlowski R. C., European Journal Biochemistry 159, 125-127 (1986); Wiersema P. H., Loeb A. L. and Overbeek, J., Colloid Interface Science 22, 78-99 (1966)).
The surfactant/peptide circular dichroism (CD) spectra were obtained in a 2 mm path-length cell (110-Q-2 Model, AVIV, Lakewood, N.J.) at 32° C. The cell was initially loaded with 0.60 mL of a solution containing about 0.25 mg/mL of the peptide in 10 mM sodium chloroacetate (pH 3.5) or 10 mM sodium borate (pH 9.0). The buffers were selected to minimize the effect of the temperature on the pH of the solution and to minimize light absorption, thereby optimizing the signal-to-noise ratio (SNR). The peptide concentration was determined by spectrophotometry, with log-log correction for light scattering. The surfactant concentration was increased step-wise by titration of concentrated surfactant stock directly into the CD cell, followed by eight inversions of the cell, with the air bubble providing the mixing turbulence. After mixing, the cell was placed into the AVIV 62 CD spectrometer (AVIV, Lakewood, N.J.). In order to approximate temperature and chemical equilibrium, the sample remained in the spectrometer 5 minutes before a reading was taken. The CD spectrum was taken using a band pass of 1 nm, a data interval of 1 nm, and a data averaging time of 10 seconds. The mean residue ellipticity is the ellipticity divided by the path length in cm times the amino acid residue concentration in decimoles/cm^3. See Methods in Enzymology, Vol 130, pp 208-269, Yang et al, "Calculation of Protein Conformation from Circular Dichroism" (1986).
as §1, §2
The measurement procedures described earlier were conducted on an aqueous solution of insulinotropin as the agent, and TWEEN® 40 (molecular weight 1282 g/mol) as the surfactant with the following changes. The insulinotropin concentration was initially 0.29 mg/mL, and 0.21 mg/mL after the final TWEEN® 40 addition and the temperature was held at 32° C. Two tests were conducted at two different concentrations of TWEEN® 40. […]

Lysozyme: protein, molecular weight 14,315 g/mol
Electrophoretic Mobility [1]: 2.4 × 10^-4 cm^2 /V-s
HIC Retention Time (Phenyl Superose Col.) [2]: 24.0 min

Cytochrome C: protein, molecular weight 12,400 g/mol
Electrophoretic Mobility [1]: 2.5 × 10^-4 cm^2 /V-s
HIC Retention Time (Phenyl Superose Col.) [2]: 2.0 min

D-Glu-D-Tyr-D-Leu-D-Lys-D-Ata-D-Leu-D-Leu-D-Ser-D-Lys-D-Leu-NH2 [Model Decapeptide, reference compound]
ta /tm ([2]; 10 mM HIS buffer, pH 7.0): 0.6
ta /tm ([2]; HIS buffer, pH 7.2): 0.5
ta /tm ([2]; pH 6.5 (10 mM histidine), no enhancer): 0.8
ta /tm ([2]; pH 6.5 (10 mM histidine), no enhancer, listed as decapeptide): about 0.8
ta /tm ([2]; pH 6.5, with 3 mM Tween 20): 0.9
in vitro Skin Flux [3]: l.3 μg/cm^2 -hr

CCCCCCCCCCCC[N+](C)(C)C.[Cl-] [DTAC, dodecyl trimethyl ammonium chloride, reference compound]
surfactant concentration at which an ellipticity of -9000 occurs [4]: about 3.0 mM

B1: Ribonuclease: protein, molecular weight 13,686 g/mol (protein, UniProt P61823 27-150, looked up)
Ribonuclease pancreatic: KETAAAKFERQHMDSSTSAASSSNYCNQMMKSRNLTKDRCKPVNTFVHESLADVQAVCSQKNVACKNGQTNCYQSYSTMSITDCRETGSSKYPNCAYKTTQANKHIIVACEGNPYVPVHFDASV
Electrophoretic Mobility [1]: 1.9 × 10^-4 cm^2 /V-s
HIC Retention Time (Phenyl Superose Col.) [2]: 12.1 min
